From ChEMBL document CHEMBL5291721, “A preclinical secondary pharmacology resource illuminates target-adverse drug reaction associations of marketed drugs” (Nat Commun, 2023)

Experiments:
[1] = target: T1, Alpha-1A adrenergic receptor (Homo sapiens, UniProt P35348); type: functional, cell-based
T1 sequence (P35348 whole entry): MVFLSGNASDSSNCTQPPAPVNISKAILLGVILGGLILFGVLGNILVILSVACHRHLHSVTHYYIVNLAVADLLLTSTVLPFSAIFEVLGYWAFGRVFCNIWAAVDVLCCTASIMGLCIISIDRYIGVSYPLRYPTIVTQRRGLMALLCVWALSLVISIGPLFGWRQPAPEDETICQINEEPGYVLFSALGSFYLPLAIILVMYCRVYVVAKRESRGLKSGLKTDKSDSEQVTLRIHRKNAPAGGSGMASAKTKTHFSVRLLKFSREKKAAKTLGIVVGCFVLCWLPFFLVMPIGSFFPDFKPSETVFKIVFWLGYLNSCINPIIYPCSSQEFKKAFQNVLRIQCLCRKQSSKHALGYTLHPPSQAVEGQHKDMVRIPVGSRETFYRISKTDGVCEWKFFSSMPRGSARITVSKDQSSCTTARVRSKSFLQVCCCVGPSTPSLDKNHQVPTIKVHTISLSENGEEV

[2] = target: T2, Alpha-2A adrenergic receptor (Homo sapiens, UniProt P08913); type: functional, cell-based
T2 sequence (P08913 whole entry): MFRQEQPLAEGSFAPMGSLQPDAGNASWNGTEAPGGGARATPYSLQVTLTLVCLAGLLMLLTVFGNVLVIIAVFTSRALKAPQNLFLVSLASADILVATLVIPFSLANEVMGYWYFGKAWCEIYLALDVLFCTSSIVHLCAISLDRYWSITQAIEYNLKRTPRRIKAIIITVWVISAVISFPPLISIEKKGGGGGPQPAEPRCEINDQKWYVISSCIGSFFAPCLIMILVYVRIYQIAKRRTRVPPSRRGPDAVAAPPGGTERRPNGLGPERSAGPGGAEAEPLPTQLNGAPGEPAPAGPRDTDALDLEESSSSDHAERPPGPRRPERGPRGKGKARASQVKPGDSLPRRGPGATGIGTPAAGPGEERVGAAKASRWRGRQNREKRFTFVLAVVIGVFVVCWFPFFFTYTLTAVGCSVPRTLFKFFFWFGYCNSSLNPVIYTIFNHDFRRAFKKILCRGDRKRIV

[3] = target: T3, Alpha-2C adrenergic receptor (Homo sapiens, UniProt P18825); type: functional
T3 sequence (P18825 whole entry): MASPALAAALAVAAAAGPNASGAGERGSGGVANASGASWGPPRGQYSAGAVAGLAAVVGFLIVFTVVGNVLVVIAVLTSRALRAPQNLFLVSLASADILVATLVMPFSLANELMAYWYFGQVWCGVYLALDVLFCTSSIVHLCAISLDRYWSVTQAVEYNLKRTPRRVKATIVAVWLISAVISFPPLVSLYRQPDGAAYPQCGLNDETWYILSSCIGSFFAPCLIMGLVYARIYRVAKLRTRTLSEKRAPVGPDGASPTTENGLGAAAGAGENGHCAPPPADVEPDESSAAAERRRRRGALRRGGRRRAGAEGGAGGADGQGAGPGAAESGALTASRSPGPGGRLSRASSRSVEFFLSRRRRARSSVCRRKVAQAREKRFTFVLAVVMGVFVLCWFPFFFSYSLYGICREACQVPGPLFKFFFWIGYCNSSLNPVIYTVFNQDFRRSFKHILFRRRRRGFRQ

[4] = target: Beta-1 adrenergic receptor (Homo sapiens, UniProt P08588); type: functional
[5] = target: Beta-2 adrenergic receptor (Homo sapiens, UniProt P07550)
Androgen receptor [6] = target: T4, Androgen receptor (Rattus norvegicus, UniProt P15207); type: functional
T4 sequence (P15207 whole entry): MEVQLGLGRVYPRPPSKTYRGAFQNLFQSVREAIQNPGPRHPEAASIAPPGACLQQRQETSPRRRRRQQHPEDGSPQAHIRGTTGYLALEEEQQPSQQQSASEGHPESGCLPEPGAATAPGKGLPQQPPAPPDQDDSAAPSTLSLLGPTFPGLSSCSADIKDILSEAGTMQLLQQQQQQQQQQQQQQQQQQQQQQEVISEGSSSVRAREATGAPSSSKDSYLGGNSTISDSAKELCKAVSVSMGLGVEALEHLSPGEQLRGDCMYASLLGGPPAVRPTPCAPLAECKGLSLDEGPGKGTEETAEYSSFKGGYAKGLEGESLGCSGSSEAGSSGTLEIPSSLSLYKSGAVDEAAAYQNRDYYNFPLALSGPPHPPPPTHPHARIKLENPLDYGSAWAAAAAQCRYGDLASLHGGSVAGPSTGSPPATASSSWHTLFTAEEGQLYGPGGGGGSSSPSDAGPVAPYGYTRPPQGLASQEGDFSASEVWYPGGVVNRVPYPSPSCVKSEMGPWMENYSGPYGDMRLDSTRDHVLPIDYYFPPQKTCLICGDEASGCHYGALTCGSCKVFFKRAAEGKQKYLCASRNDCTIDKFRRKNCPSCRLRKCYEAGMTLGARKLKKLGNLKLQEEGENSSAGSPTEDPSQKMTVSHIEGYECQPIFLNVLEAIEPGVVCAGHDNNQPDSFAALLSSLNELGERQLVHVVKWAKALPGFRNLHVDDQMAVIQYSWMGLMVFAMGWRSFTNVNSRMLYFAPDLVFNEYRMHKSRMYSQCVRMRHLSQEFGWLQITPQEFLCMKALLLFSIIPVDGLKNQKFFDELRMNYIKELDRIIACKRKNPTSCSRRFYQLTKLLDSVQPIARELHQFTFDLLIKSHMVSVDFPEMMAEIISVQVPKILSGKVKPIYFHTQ

Androgen receptor [7] = target: T4, Androgen receptor; type: functional; remark: listed apart in the source
[8] = target: Voltage-dependent L-type calcium channel subunit alpha-1C (Rattus norvegicus, UniProt P22002); type: functional
Cannabinoid receptor 1 [9] = target: T5, Cannabinoid receptor 1 (Homo sapiens, UniProt P21554); type: functional, cell-based
Cannabinoid receptor 1 [10] = target: T5, Cannabinoid receptor 1; type: functional, cell-based; remark: listed apart in the source
[11] = target: Glutamate receptor ionotropic, NMDA 1 (Rattus norvegicus, UniProt P35439)
Histamine H1 receptor = Histamine H1 receptor (Homo sapiens, UniProt P35367)
Histamine H2 receptor = Histamine H2 receptor (Homo sapiens, UniProt P25021); type: functional, cell-based
Mu-type opioid receptor = Mu-type opioid receptor (Homo sapiens, UniProt P35372); assay: biochemical; type: functional
[12] = target: T6, Amine oxidase [flavin-containing] A (Homo sapiens, UniProt P21397); type: functional
T6 sequence (P21397 whole entry): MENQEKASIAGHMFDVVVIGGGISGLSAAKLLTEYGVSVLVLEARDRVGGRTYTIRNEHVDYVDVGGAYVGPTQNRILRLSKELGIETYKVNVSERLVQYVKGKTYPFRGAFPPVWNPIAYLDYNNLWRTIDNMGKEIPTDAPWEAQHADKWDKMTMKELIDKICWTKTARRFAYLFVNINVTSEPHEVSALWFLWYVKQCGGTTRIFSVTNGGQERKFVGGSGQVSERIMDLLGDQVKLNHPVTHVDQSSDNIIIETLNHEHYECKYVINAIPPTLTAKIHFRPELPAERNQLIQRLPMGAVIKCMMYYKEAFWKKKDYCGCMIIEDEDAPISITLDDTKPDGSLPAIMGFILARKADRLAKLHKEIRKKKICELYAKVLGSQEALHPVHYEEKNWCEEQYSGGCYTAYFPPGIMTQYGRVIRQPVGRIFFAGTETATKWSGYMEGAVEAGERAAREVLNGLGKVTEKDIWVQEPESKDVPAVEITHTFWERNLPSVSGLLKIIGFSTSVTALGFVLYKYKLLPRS

Histamine H3 receptor = Histamine H3 receptor (Homo sapiens, UniProt Q9Y5N1)
Acetylcholinesterase = Acetylcholinesterase (Homo sapiens, UniProt P22303); type: functional
Cannabinoid receptor 1 [13] = target: T5, Cannabinoid receptor 1; type: functional
[14] = target: Gamma-aminobutyric acid receptor subunit alpha-1/alpha-2/beta-2/gamma-2 (Homo sapiens, UniProt P14867+P18507+P47869+P47870); type: protein-complex assay
[15] = target: Sodium channel protein type 5 subunit alpha (Homo sapiens, UniProt Q14524); type: functional, cell-based
Note: assay procedure not described here.

T5 sequence (P21554 whole entry): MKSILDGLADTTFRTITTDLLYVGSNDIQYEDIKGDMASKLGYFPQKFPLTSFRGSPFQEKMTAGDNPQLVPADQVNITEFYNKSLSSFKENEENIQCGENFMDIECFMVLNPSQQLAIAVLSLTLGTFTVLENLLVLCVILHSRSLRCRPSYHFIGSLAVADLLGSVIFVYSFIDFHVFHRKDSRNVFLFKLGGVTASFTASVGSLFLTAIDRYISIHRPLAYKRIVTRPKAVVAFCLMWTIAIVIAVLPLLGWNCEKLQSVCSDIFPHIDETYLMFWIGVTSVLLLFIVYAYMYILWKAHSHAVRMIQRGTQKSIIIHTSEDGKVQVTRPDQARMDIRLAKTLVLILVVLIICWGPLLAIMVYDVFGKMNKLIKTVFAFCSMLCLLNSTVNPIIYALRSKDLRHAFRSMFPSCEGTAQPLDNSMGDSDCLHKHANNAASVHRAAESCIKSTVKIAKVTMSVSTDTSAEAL
Chain of Histamine H2 receptor (P25021 whole entry): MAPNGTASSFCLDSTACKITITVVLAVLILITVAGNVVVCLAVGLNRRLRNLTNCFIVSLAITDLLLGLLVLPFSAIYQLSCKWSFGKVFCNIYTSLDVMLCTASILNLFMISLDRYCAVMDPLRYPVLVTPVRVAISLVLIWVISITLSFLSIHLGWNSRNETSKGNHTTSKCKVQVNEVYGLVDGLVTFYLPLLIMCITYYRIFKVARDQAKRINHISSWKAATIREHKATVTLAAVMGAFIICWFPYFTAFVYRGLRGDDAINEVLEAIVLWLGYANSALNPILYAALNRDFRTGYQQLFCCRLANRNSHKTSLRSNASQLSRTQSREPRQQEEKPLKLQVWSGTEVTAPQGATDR
Chain of Sodium channel protein type 5 subunit alpha (Q14524 whole entry): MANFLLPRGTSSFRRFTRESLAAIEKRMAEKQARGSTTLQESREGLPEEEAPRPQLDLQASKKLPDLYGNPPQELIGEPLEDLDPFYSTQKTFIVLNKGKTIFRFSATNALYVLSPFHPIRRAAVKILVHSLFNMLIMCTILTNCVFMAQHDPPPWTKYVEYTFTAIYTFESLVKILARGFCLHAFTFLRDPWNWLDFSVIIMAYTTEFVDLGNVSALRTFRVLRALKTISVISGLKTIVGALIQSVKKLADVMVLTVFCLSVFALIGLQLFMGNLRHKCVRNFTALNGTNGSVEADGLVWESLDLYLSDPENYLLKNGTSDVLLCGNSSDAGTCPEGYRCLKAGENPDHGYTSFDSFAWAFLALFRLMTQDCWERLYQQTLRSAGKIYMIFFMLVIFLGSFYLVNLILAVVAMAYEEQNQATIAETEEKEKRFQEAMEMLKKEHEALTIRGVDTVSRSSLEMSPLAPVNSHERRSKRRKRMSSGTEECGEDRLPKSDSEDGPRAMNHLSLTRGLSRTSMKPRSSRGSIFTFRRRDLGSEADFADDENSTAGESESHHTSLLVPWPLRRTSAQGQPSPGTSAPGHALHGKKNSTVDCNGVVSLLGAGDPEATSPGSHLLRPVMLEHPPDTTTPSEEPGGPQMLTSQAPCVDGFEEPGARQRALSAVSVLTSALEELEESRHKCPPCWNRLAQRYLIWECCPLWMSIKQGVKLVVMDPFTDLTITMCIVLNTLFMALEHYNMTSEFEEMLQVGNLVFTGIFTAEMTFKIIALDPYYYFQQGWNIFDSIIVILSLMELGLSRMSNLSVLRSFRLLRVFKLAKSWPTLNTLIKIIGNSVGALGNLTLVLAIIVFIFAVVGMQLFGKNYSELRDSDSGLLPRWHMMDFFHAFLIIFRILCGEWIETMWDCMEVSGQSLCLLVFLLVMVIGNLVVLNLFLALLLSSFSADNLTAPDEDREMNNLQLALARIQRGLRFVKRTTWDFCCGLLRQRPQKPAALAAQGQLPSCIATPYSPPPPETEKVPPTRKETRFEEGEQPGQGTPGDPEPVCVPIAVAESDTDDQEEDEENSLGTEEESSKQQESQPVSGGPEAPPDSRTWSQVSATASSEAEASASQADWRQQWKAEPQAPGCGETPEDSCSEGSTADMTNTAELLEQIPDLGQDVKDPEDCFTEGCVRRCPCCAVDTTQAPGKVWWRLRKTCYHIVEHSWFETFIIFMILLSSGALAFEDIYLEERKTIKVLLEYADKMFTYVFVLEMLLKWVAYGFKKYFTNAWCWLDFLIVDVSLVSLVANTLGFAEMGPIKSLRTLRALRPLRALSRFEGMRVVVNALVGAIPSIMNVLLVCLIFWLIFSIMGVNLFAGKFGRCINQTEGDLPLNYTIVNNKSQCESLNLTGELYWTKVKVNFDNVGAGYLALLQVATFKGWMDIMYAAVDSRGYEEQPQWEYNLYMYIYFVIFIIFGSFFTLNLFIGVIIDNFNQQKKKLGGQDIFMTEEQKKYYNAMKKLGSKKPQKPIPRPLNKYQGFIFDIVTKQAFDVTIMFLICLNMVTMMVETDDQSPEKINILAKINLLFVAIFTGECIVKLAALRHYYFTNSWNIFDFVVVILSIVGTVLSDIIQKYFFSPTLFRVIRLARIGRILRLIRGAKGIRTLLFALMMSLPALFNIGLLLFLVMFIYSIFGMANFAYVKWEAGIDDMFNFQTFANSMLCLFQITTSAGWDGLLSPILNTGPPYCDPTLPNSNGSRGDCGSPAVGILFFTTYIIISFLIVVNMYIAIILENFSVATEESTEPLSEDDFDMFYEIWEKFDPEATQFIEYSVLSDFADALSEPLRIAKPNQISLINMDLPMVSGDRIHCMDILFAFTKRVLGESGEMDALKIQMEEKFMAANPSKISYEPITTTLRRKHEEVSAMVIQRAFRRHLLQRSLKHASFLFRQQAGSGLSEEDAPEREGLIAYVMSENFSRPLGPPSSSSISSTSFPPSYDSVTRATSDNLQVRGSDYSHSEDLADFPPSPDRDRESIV
Chain of Beta-2 adrenergic receptor (P07550 whole entry): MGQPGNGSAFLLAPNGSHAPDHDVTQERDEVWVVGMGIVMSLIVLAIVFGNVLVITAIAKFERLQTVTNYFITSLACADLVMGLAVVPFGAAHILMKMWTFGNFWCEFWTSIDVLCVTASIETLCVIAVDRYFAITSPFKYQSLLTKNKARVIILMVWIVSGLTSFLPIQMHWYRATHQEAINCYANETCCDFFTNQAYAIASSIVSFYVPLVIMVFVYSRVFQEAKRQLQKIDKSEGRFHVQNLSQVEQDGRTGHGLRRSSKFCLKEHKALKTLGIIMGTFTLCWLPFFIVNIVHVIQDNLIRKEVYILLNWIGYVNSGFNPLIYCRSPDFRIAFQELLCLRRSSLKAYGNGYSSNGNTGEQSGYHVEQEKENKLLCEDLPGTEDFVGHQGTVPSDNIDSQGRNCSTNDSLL
Chain of Acetylcholinesterase (P22303 whole entry): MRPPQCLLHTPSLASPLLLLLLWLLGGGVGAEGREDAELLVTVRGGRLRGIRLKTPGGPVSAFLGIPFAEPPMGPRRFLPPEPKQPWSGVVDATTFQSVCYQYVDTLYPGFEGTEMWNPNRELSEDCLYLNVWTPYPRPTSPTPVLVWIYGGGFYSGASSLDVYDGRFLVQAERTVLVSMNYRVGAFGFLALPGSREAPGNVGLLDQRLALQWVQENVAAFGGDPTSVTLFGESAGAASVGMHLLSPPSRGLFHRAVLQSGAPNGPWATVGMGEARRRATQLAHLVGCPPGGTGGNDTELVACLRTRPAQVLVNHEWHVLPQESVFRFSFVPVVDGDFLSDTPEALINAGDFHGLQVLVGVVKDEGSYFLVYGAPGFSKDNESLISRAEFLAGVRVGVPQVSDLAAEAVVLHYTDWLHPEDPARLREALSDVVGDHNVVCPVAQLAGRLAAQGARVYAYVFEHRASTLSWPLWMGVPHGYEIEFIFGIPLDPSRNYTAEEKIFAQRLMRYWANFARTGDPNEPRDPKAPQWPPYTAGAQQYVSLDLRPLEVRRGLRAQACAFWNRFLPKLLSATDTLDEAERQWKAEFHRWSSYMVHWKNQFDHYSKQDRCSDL
Chain of Mu-type opioid receptor (P35372 whole entry): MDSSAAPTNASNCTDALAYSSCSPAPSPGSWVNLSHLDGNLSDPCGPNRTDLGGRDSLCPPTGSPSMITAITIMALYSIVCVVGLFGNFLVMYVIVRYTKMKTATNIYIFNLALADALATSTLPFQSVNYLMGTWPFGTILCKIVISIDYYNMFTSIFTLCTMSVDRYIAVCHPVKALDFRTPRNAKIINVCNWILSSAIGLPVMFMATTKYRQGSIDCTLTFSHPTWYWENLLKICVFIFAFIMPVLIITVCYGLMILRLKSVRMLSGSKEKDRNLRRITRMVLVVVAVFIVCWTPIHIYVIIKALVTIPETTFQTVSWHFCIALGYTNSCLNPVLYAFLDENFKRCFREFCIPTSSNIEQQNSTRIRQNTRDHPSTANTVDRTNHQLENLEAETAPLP
Chain of Histamine H1 receptor (P35367 whole entry): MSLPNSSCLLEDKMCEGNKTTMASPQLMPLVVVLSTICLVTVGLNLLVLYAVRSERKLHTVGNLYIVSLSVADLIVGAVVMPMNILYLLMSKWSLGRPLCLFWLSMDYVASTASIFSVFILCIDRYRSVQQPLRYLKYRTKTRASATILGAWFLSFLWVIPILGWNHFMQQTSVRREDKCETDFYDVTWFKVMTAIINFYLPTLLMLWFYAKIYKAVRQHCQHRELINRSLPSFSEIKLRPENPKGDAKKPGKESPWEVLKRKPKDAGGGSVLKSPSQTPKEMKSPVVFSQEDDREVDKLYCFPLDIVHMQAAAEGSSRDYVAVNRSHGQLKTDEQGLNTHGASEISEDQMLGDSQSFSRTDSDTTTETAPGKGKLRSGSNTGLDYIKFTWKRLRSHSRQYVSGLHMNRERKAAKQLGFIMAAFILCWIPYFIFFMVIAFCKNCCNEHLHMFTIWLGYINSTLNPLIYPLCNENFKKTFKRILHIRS

AC50 [1] [µM] | AC50 [2] [µM] | AC50 [3] [µM] | AC50 [4] [µM] | AC50 [5] [µM] | AC50 (Androgen receptor [6]) [µM] | AC50 (Androgen receptor [7]) [µM] | AC50 [8] [µM] | AC50 [11] [µM] | AC50 (Histamine H1 receptor) [µM] | AC50 (Histamine H2 receptor) [µM] | AC50 (Mu-type opioid receptor) [µM] | AC50 [12] [µM] | AC50 (Histamine H3 receptor) [µM] | Compound | AC50 (Cannabinoid receptor 1 [9]) [µM] | AC50 (Cannabinoid receptor 1 [10]) [µM] | AC50 (Acetylcholinesterase) [µM] | AC50 (Cannabinoid receptor 1 [13]) [µM] | AC50 [14] [µM] | AC50 [15] [µM]
> 30 | > 30 | > 30 | > 30 | > 30 | > 30 | 9.4 | > 30 | > 30 | > 30 | > 30 | > 30 | > 30 | > 30 | CCC(=O)OCC(=O)[C@@]1(OC(=O)CC)[C@H](C)C[C@H]2[C@H]3[C@H]([C@@H](O)C[C@@]21C)[C@@]1(C)C=CC(=O)C=C1C[C@H]3Cl [ALCLOMETASONE DIPROPIONATE] | > 30 | 0.58 |  |  |  | 
 |  |  |  |  |  |  |  |  |  |  |  |  |  | OCCOCCN1CCN(C2=Nc3ccccc3Sc3ccccc32)CC1 [QUETIAPINE] | > 30 | > 30 | > 30 | > 10 | > 30 | 
 |  |  |  |  |  |  |  |  |  |  |  |  |  | N#C[C@@H]1C[C@@H]2C[C@@H]2N1C(=O)[C@@H](N)C12CC3CC(CC(O)(C3)C1)C2 [SAXAGLIPTIN ANHYDROUS] |  |  |  |  |  | > 15
